Columns and labels:
Type in all cases: functional
Details in all cases: read-out: DIZ
Escherichia coli [1] = assay: Antibacterial activity against Escherichia coli at 0.13 mol/L after 12 to 24 hrs by paper disc method
Aspergillus niger [2] = assay: Antifungal activity against Aspergillus niger at 0.13 mol/L after 2 to 4 days by paper disc method
Staphylococcus aureus [3] = assay: Antibacterial activity against Staphylococcus aureus at 0.13 mol/L after 12 to 24 hrs by paper disc method
Aspergillus niger [4] = assay: Antifungal activity against Aspergillus niger at 0.06 mol/L after 2 to 4 days by paper disc method
Staphylococcus aureus [5] = assay: Antibacterial activity against Staphylococcus aureus at 0.06 mol/L after 12 to 24 hrs by paper disc method
Escherichia coli [6] = assay: Antibacterial activity against Escherichia coli at 0.25 mol/L after 12 to 24 hrs by paper disc method
Penicillium citrinum [7] = assay: Antifungal activity against Penicillium citrinum at 0.03 mol/L after 2 to 4 days by paper disc method
Penicillium citrinum [8] = assay: Antifungal activity against Penicillium citrinum at 0.13 mol/L after 2 to 4 days by paper disc method
Escherichia coli [9] = assay: Antibacterial activity against Escherichia coli at 0.03 mol/L after 12 to 24 hrs by paper disc method
Penicillium citrinum [10] = assay: Antifungal activity against Penicillium citrinum at 0.25 mol/L after 2 to 4 days by paper disc method
Escherichia coli [11] = assay: Antibacterial activity against Escherichia coli at 0.06 mol/L after 12 to 24 hrs by paper disc method
Staphylococcus aureus [12] = assay: Antibacterial activity against Staphylococcus aureus at 0.25 mol/L after 12 to 24 hrs by paper disc method
Penicillium citrinum [13] = assay: Antifungal activity against Penicillium citrinum at 0.06 mol/L after 2 to 4 days by paper disc method
Aspergillus niger [14] = assay: Antifungal activity against Aspergillus niger at 0.25 mol/L after 2 to 4 days by paper disc method
Staphylococcus aureus [15] = assay: Antibacterial activity against Staphylococcus aureus at 0.03 mol/L after 12 to 24 hrs by paper disc method
Aspergillus niger [16] = assay: Antifungal activity against Aspergillus niger at 0.03 mol/L after 2 to 4 days by paper disc method

Compound | zone of inhibition at 130000 µM (Escherichia coli [1]) [mm] | zone of inhibition at 130000 µM (Aspergillus niger [2]) [mm] | zone of inhibition at 130000 µM (Staphylococcus aureus [3]) [mm] | zone of inhibition at 60000 µM (Aspergillus niger [4]) [mm] | zone of inhibition at 60000 µM (Staphylococcus aureus [5]) [mm] | zone of inhibition at 250000 µM (Escherichia coli [6]) [mm] | zone of inhibition at 30000 µM (Penicillium citrinum [7]) [mm] | zone of inhibition at 130000 µM (Penicillium citrinum [8]) [mm] | zone of inhibition at 30000 µM (Escherichia coli [9]) [mm] | zone of inhibition at 250000 µM (Penicillium citrinum [10]) [mm] | zone of inhibition at 60000 µM (Escherichia coli [11]) [mm] | zone of inhibition at 250000 µM (Staphylococcus aureus [12]) [mm] | zone of inhibition at 60000 µM (Penicillium citrinum [13]) [mm] | zone of inhibition at 250000 µM (Aspergillus niger [14]) [mm] | zone of inhibition at 30000 µM (Staphylococcus aureus [15]) [mm] | zone of inhibition at 30000 µM (Aspergillus niger [16]) [mm]
COc1ccc(/C=C/C=N/[C@H](C(=O)O)C(C)C)cc1 | 8 | 13.3 | 8 | 10.3 | 8 | 9 | 8 | 11.7 | 8 | 14.3 | 12 | 9 | 12.7 | 16.7 | 8 | 9
COc1ccc(/C=C/C=N/[C@@H](CC(C)C)C(=O)O)cc1 | 14 | 16 | 8 | 10.5 | 8 | 13 | 12 | 12 | 8 | 17.7 | 9.3 | 10.8 | 10 | 19 | 9.7 | 9.7
O=C(O)CC[C@H](/N=C/C=C/c1ccc(Cl)cc1)C(=O)O | 17.3 | 23.3 | 20 | 17.3 | 10.5 | 18.3 | 17 | 23 | 15.7 | 35 | 12 | 31 | 18.7 | 21 | 8.3 | 17.7
CC(C)[C@H](/N=C/C=C/c1ccccc1)C(=O)O | 8 | 12.3 | 8 | 13 | 8 | 9 | 9 | 9.7 | 8 | 12.5 | 11 | 8 | 8 | 12.7 | 8 | 8
O=C(O)[C@H](Cc1ccccc1)/N=C/C=C/c1ccc(Cl)cc1 | 26 | 19.7 | 29 | 21 | 13.3 | 19.5 | 18.3 | 23.2 | 9.2 | 35 | 19 | 33 | 21 | 26 | 9 | 12.3
OC(Cn1cncn1)(Cn1cncn1)c1ccc(F)cc1F [FLUCONAZOLE] | – | 18.7 | – | 17.7 | – | – | 8 | 13 | – | 13.3 | – | – | 9.2 | 25 | – | 14.5
COc1ccc(/C=C/C=N/C(C)C(=O)O)cc1 (stereo not drawn) | 8 | 10.5 | 8.7 | 12.7 | 8 | 16.3 | 9 | 9.8 | 8 | 17.7 | 10 | 12.7 | 13.3 | 15.8 | 8 | 8
O=C/C=C/c1ccccc1 [CINNAMALDEHYDE] | 11 | 22.3 | 9 | 16 | 8 | 29.5 | 12.2 | 28.7 | 8 | 29.7 | 11 | 10.5 | 15 | 26.7 | 8 | 8
O=C(O)[C@H](Cc1ccc(O)cc1)/N=C/C=C/c1ccccc1 | 19.5 | 18.7 | 11.5 | 12.3 | 8 | 31.3 | 12.3 | 11.5 | 12 | 12 | 8 | 14.2 | 11 | 12 | 8 | 8
CC(/N=C/C=C/c1ccc(Cl)cc1)C(=O)O (stereo not drawn) | 12.5 | 24.7 | 33.5 | 19.3 | 10.5 | 12.2 | 17.3 | 26.3 | 12 | 30.3 | 11.5 | 33.7 | 24.7 | 26.7 | 8.7 | 13.8
O=C(O)C[C@H](/N=C/C=C/c1ccc(Cl)cc1)C(=O)O | 12 | 15.7 | 18.3 | 19.3 | 8.5 | 25.2 | 24.5 | 23.3 | 8 | 32.3 | 13 | 30.3 | 25 | 29 | 9.2 | 14.3
COc1ccc(/C=C/C=N/[C@@H](Cc2ccc(O)cc2)C(=O)O)cc1 | 12.3 | 14.7 | 8.7 | 13.8 | 8 | 18 | 10.8 | 16.5 | 12 | 24 | 8.3 | 8.5 | 19 | 19.5 | 8 | 10.3
COc1ccc(/C=C/C=N/[C@@H](CCC(=O)O)C(=O)O)cc1 | 11.7 | 20.3 | 8 | 13.2 | 8.3 | 18.7 | 11.5 | 25.3 | 8 | 20.7 | 11.3 | 8.3 | 13.3 | 23.2 | 8 | 8.8
O=C(O)C/N=C/C=C/c1ccccc1 | 8 | 8.7 | 8 | 9 | 8 | 9.3 | 8 | 10.7 | 8 | 10.3 | 8 | 11.7 | 11 | 11 | 8 | 8
O=C(O)c1cn(C2CC2)c2cc(N3CCNCC3)c(F)cc2c1=O [CIPROFLOXACIN] | 23.3 | – | 21 | – | 16.7 | 24.3 | – | – | 22.3 | – | – | 21 | – | – | 16 | –

From ChEMBL document CHEMBL3751674, “Synthesis, antimicrobial activity of Schiff base compounds of cinnamaldehyde and amino acids” (2016)
